Among the data in patent US9732075B2, “Benzimidazole-proline derivatives” (IDORSIA PHARMACEUTICALS LTD, priority 2012, dated 2017) are IC50 values, retold here.

The target of one assay is human orexin-2 receptor (Homo sapiens (Human), UniProt O43614). Kind of assay: In vitro assay: intracellular calcium measurements (FLIPR), antagonistic activity. The class given is cell-based. As to conditions: CHO cells expressing human orexin-2 receptor, orexin-A agonist, geometric mean, read-out: IC50 Ox2. The method in brief:
(§1)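 hOX1R/hOX2R CHO cells, fluo-4 AM + 5 mM probenecid, 50 min 37 °C then 30 min RT. Cpd 120 min, then orexin-A 3 nM final; FLIPR peak height vs vehicle. IC50, geometric mean of repeats.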
Background: Calcium flux is commonly read through the fluorescence of an indicator in the cells.

For a further assay, the target named is human orexin-1 receptor (Homo sapiens (Human), UniProt O43613). The assay is described as above. As to conditions: CHO cells expressing human orexin-1 receptor, orexin-A agonist, geometric mean, read-out: IC50 Ox1. The class given is cell-based. The gist of the method:
as §1

One may read the IC50 as the midpoint of a concentration-inhibition curve.

Sequence of human orexin-2 receptor (O43614 whole entry): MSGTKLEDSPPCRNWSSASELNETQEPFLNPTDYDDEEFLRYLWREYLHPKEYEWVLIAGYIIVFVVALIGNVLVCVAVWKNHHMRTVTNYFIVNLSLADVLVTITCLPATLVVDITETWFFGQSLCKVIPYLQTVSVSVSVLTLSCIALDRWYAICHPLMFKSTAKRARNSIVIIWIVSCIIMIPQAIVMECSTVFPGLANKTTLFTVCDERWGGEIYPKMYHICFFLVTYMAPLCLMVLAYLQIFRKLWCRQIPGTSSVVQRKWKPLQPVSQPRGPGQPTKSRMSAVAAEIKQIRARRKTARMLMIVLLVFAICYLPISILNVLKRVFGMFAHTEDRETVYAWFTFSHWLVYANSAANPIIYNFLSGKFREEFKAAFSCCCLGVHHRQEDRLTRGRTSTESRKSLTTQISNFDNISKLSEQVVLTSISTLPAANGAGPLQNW
Sequence of human orexin-1 receptor (O43613 whole entry): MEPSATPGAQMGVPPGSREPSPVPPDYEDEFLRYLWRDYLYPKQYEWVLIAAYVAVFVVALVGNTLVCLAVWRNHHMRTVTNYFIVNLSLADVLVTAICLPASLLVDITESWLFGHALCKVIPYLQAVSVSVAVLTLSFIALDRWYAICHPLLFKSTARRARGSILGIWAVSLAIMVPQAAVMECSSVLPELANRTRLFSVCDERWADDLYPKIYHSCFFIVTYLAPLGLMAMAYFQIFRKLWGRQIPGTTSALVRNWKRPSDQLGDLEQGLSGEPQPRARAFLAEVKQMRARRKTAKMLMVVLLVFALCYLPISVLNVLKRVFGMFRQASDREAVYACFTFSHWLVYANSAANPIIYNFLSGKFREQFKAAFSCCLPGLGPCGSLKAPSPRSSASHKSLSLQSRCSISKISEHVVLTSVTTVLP

As to `Cc1ccc(-c2cccnc2)c(C(=O)N2CC[C@H](C)[C@H]2c2nc3c(C)c(Cl)ccc3[nH]2)c1F` [Ex. 4.173], the IC50 came to 6.33 µM on human orexin-2 receptor and 0.013 µM on human orexin-1 receptor.

Regarding `Cc1ccc(C(=O)N2CC[C@H](C)[C@H]2c2nc3c(C)c(Cl)ccc3[nH]2)c(-c2ncccn2)c1` [Ex. 4.174], the IC50 was 0.132 µM at human orexin-2 receptor and 0.012 µM at human orexin-1 receptor.

Consider `Cc1c(Cl)ccc2[nH]c([C@@H]3[C@@H](C)CCN3C(=O)c3cc(F)ccc3-c3ncccn3)nc12` [Ex. 4.175], for which the figures for the IC50 at human orexin-2 receptor and on human orexin-1 receptor were 0.249 µM and 0.014 µM, respectively.

As to `Cc1ccc(-c2ncccn2)c(C(=O)N2CC[C@H](C)[C@H]2c2nc3c(C)c(Cl)ccc3[nH]2)c1F` [Ex. 4.176], the IC50 is 1.07 µM on human orexin-2 receptor and 0.015 µM at human orexin-1 receptor.

Take `Cc1c(Cl)ccc2[nH]c([C@@H]3[C@@H](C)CCN3C(=O)c3c(F)cccc3-c3ncccn3)nc12` [Ex. 4.177]: the results for the half-maximal inhibitory concentration (IC50) on human orexin-2 receptor and at human orexin-1 receptor were 0.219 µM and 0.009 µM, respectively.

With `Cc1ccc(-c2ncccn2)c(C(=O)N2CC[C@H](C)[C@H]2c2nc3c(C)c(Cl)ccc3[nH]2)c1` [Ex. 4.178], the half-maximal inhibitory concentration (IC50) at human orexin-2 receptor amounted to 0.35 µM; on human orexin-1 receptor, 0.007 µM.

As to `COc1cc2nc([C@@H]3[C@@H](C)CCN3C(=O)c3cc(C)ccc3-c3ncccn3)[nH]c2cc1OC` [Ex. 4.179], the IC50 on human orexin-2 receptor is 0.069 µM; at human orexin-1 receptor it was 0.027 µM.

As to `Cc1ccc(-c2ncccn2)c(C(=O)N2CC[C@H](C)[C@H]2c2nc3cc(Cl)c(C)cc3[nH]2)c1` [Ex. 4.180], the IC50 on human orexin-2 receptor is 0.304 µM; on human orexin-1 receptor, 0.008 µM.

Take `Cc1ccc(-c2ncccn2)c(C(=O)N2CC[C@H](C)[C@H]2c2nc3ccc(Cl)c(C)c3[nH]2)c1` [Ex. 4.181]: the 50% inhibitory concentration (IC50) came to 0.23 µM on human orexin-2 receptor and 0.003 µM at human orexin-1 receptor.

With `Cc1ccc(-c2ncccn2)c(C(=O)N2CC[C@H](C)[C@H]2c2nc3cc(Cl)cc(C)c3[nH]2)c1` [Ex. 4.182], the results for the IC50 on human orexin-2 receptor and at human orexin-1 receptor were 0.694 µM and 0.007 µM, respectively.

Turning to `Cc1ccc(-c2ncccn2)c(C(=O)N2CC[C@H](C)[C@H]2c2nc3cc(C)c(C)cc3[nH]2)c1` [Ex. 4.183], the figures for the IC50 on human orexin-2 receptor and on human orexin-1 receptor were 2.26 µM and 0.093 µM, respectively.

On to `Cc1ccc(-n2nccn2)c(C(=O)N2CCC[C@@]2(C)c2nc3c(C)c(Cl)ccc3[nH]2)c1` [Ex. 5.2], for which the IC50 is 0.005 µM at human orexin-2 receptor and 0.002 µM on human orexin-1 receptor.

For the compound `Cc1nc(C(=O)N2CCC[C@@]2(C)c2nc3c(C)c(Cl)ccc3[nH]2)c(-c2ccccc2)s1` [Ex. 5.3], the half-inhibitory concentration (IC50) on human orexin-2 receptor is 0.004 µM; on human orexin-1 receptor, 0.002 µM.

Consider `Cc1nc(C(=O)N2CCC[C@@]2(C)c2nc3c(C)cccc3[nH]2)c(-c2cccc(Cl)c2)s1` [Ex. 5.4], for which the figures for the half-inhibitory concentration (IC50) at human orexin-2 receptor and on human orexin-1 receptor were 0.006 µM and 0.01 µM, respectively.

With `Cc1nc(C(=O)N2CCC[C@@]2(C)c2nc3c(C)c(Cl)ccc3[nH]2)c(-c2cccc(Cl)c2)s1` [Ex. 5.5], the IC50 at human orexin-2 receptor is 0.005 µM; on human orexin-1 receptor, 0.003 µM.

On to `Cc1ccc(-n2nccn2)c(C(=O)N2CCC[C@@]2(C)c2nc3c(C)cccc3[nH]2)c1` [Ex. 5.6], for which the values for the IC50 on human orexin-2 receptor and at human orexin-1 receptor were 0.059 µM and 0.032 µM, respectively.

On to `Cc1ccc(-n2nccn2)c(C(=O)N2CCC[C@@]2(C)c2nc3cc(Cl)c(Cl)cc3[nH]2)c1` [Ex. 5.7], for which the IC50 at human orexin-2 receptor was 0.029 µM; on human orexin-1 receptor it was 0.005 µM.

`Cc1ccc(-n2nccn2)c(C(=O)N2CCC[C@@]2(C)c2nc3cc(Br)ccc3[nH]2)c1` [Ex. 5.8]: the IC50 on human orexin-2 receptor was 0.129 µM; at human orexin-1 receptor, 0.013 µM.

In the case of `Cc1ccc(-n2nccn2)c(C(=O)N2CCC[C@@]2(C)c2nc3cc(C(F)(F)F)ccc3[nH]2)c1` [Ex. 5.9], the half-maximal inhibitory concentration (IC50) on human orexin-2 receptor amounted to 0.081 µM; at human orexin-1 receptor, 0.008 µM.

As to `Cc1ccc(-n2nccn2)c(C(=O)N2CCC[C@@]2(C)c2nc3cc(C)c(C)cc3[nH]2)c1` [Ex. 5.10], the half-maximal inhibitory concentration (IC50) on human orexin-2 receptor turned out to be 0.016 µM; on human orexin-1 receptor, 0.006 µM.

As for `Cc1ccc(-n2nccn2)c(C(=O)N2CCC[C@@]2(C)c2nc3cc(Cl)ccc3[nH]2)c1` [Ex. 5.11], the half-maximal inhibitory concentration (IC50) at human orexin-2 receptor came out at 0.413 µM; on human orexin-1 receptor it was 0.029 µM.

For `Cc1ccc(-n2nccn2)c(C(=O)N2CCC[C@@]2(C)c2nc3cc(F)c(Cl)cc3[nH]2)c1` [Ex. 5.12], the IC50 at human orexin-2 receptor came to 0.134 µM; at human orexin-1 receptor, 0.015 µM.

`Cc1ccc(-n2nccn2)c(C(=O)N2CCC[C@@]2(C)c2nc3cc(C(C)(C)C)ccc3[nH]2)c1` [Ex. 5.13]: the values for the half-inhibitory concentration (IC50) on human orexin-2 receptor and on human orexin-1 receptor were 0.031 µM and 0.006 µM, respectively.

Regarding `Cc1ccc(-n2nccn2)c(C(=O)N2CCC[C@@]2(C)c2nc3c(Cl)cc(C(F)(F)F)cc3[nH]2)c1` [Ex. 5.14], the results for the IC50 at human orexin-2 receptor and at human orexin-1 receptor were 0.031 µM and 0.006 µM, respectively.

For the compound `Cc1ccc(-n2nccn2)c(C(=O)N2CCC[C@@]2(C)c2nc3cc(Cl)c(C)cc3[nH]2)c1` [Ex. 5.15], the IC50 on human orexin-2 receptor was found to be 0.022 µM; on human orexin-1 receptor it was 0.005 µM.

With `Cc1ccc(-n2nccn2)c(C(=O)N2CCC[C@@]2(C)c2nc3c(C)cc(C)cc3[nH]2)c1` [Ex. 5.16], the half-maximal inhibitory concentration (IC50) on human orexin-2 receptor amounted to 0.018 µM; on human orexin-1 receptor it was 0.016 µM.

As for `Cc1ccc(-n2nccn2)c(C(=O)N2CCC[C@@]2(C)c2nc3c(C(F)(F)F)cccc3[nH]2)c1` [Ex. 5.17], the values for the half-inhibitory concentration (IC50) on human orexin-2 receptor and at human orexin-1 receptor were 0.076 µM and 0.011 µM, respectively.

For the compound `Cc1ccc(-n2nccn2)c(C(=O)N2CCC[C@@]2(C)c2nc3c(Br)cccc3[nH]2)c1` [Ex. 5.18], the IC50 on human orexin-2 receptor worked out at 0.084 µM; on human orexin-1 receptor it was 0.023 µM.

Regarding `Cc1ccc(-n2nccn2)c(C(=O)N2CCC[C@@]2(C)c2nc3cc(OC(F)(F)F)ccc3[nH]2)c1` [Ex. 5.20], the IC50 worked out at 0.161 µM at human orexin-2 receptor and 0.019 µM at human orexin-1 receptor.

On to `COc1cc2nc([C@]3(C)CCCN3C(=O)c3cc(C)ccc3-n3nccn3)[nH]c2cc1OC` [Ex. 5.21], for which the IC50 at human orexin-2 receptor turned out to be 0.018 µM; at human orexin-1 receptor, 0.022 µM.

With `Cc1ccc(-n2nccn2)c(C(=O)N2CCC[C@@]2(C)c2nc3cc(C(F)(F)F)c(F)cc3[nH]2)c1` [Ex. 5.22], the IC50 came to 0.086 µM at human orexin-2 receptor and 0.007 µM on human orexin-1 receptor.

Turning to `Cc1ccc(-n2nccn2)c(C(=O)N2CCC[C@@]2(C)c2nc3cc(F)c(Br)cc3[nH]2)c1` [Ex. 5.23], the IC50 on human orexin-2 receptor was determined as 0.08 µM; on human orexin-1 receptor, 0.015 µM.

Regarding `Cc1ccc(-n2nccn2)c(C(=O)N2CCC[C@@]2(C)c2nc3cc(C(F)(F)F)c(Cl)cc3[nH]2)c1` [Ex. 5.24], the half-maximal inhibitory concentration (IC50) on human orexin-2 receptor was 0.009 µM; on human orexin-1 receptor, 0.002 µM.

Turning to `Cc1ccc(-n2nccn2)c(C(=O)N2CCC[C@@]2(C)c2nc3c(Br)cc(F)cc3[nH]2)c1` [Ex. 5.25], the concentration for half-maximal inhibition (IC50) on human orexin-2 receptor was 0.081 µM; at human orexin-1 receptor, 0.027 µM.

Take `Cc1ccc(-n2nccn2)c(C(=O)N2CCC[C@@]2(C)c2nc3c(Cl)cccc3[nH]2)c1` [Ex. 5.26]: the results for the IC50 on human orexin-2 receptor and on human orexin-1 receptor were 0.197 µM and 0.039 µM, respectively.

Consider `Cc1ccc(-n2nccn2)c(C(=O)N2CCC[C@@]2(C)c2nc3c(F)c(F)ccc3[nH]2)c1` [Ex. 5.27], for which the values for the 50% inhibitory concentration (IC50) on human orexin-2 receptor and on human orexin-1 receptor were 0.507 µM and 0.046 µM, respectively.

In the case of `Cc1ccc(-n2nccn2)c(C(=O)N2CCC[C@@]2(C)c2nc3c(C)c(C)ccc3[nH]2)c1` [Ex. 5.28], the half-maximal inhibitory concentration (IC50) on human orexin-2 receptor came to 0.019 µM; at human orexin-1 receptor, 0.004 µM.

As for `Cc1ccc(-n2nccn2)c(C(=O)N2CCC[C@@]2(C)c2nc3c(C(C)C)cccc3[nH]2)c1` [Ex. 5.29], the half-inhibitory concentration (IC50) at human orexin-2 receptor worked out at 0.059 µM; at human orexin-1 receptor, 0.013 µM.

`Cc1ccc(-n2nccn2)c(C(=O)N2CCC[C@@]2(C)c2nc3cc(SC(F)(F)F)ccc3[nH]2)c1` [Ex. 5.30]: the IC50 was 0.164 µM at human orexin-2 receptor and 0.057 µM on human orexin-1 receptor.
